Laboratory results reported in the supplement of paper PMC8671470.

Key:
Details in all cases: 72 h
HL-60 [1] = tested on: HL-60
How it was run: (§1)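 Seeded in RPMI 1640 at densities within the linear growth range, fifteen myeloid leukaemia cell lines were dispensed into 384-well plates with acoustically pre-printed compounds spanning five tenfold doses from 1 to 10,000 nM, in duplicate. The plates were kept for 72 h at 37 °C in 5% CO2 before luminescent ATP viability was measured and normalised to vehicle and to a positive control at 10 µM. Curves were fitted with a four-parameter log-logistic model. The IC50 was taken from those curves.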

KCL-22 [2] = tested on: KCL-22
How it was run: as §1

KG-1 [3] = tested on: KG-1
How it was run: as §1

ML-2 [4] = tested on: ML-2
How it was run: as §1

NOMO-1 [5] = tested on: NOMO-1
How it was run: as §1

HL-60 [6] = assay: cell viability (% survival relative to DMSO control); higher = less cytotoxic
How it was run: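 Area under the curve, where listed, was derived from four-parameter log-logistic fits with drc and PharmacoGx. These fits used CellTiter-Glo viability from HL-60 cells in RPMI 1640 with 10% FBS, normalised to DMSO wells and wells holding 10 μM proteasome inhibitor. The full library was rescreened on 384-well plates in duplicate at five tenfold concentrations, 1–10,000 nM, with DMSO or 100 nM of one of three metabolic inhibitors, for 72 h at 37 °C, 5% CO2.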

BV-173 = assay: cell viability (% survival relative to DMSO control, bortezomib = 0%); higher = less cytotoxic
How it was run: (§2)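 Percent survival is reported as the mean of duplicate wells. Cells from 10 AML and 5 CML lines were plated in 384-well plates containing compounds at 1, 10, 100, 1000 or 10000 nM and kept for 72 h at 37 °C in 5% CO2. Readout used CellTiter-Glo luminescence, scaled so that vehicle equals 100% and a 10 µM positive control equals 0%.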

HEL = assay: as above
How it was run: as §2

HL-60 [7] = assay: as above
How it was run: as §2

K-562 = assay: as above
How it was run: as §2

KCL-22 [8] = assay: as above
How it was run: as §2

KG-1 [9] = assay: as above
How it was run: as §2

KU-812 = assay: as above
How it was run: as §2

LAMA-84 = assay: as above
How it was run: as §2

ML-2 [10] = assay: as above
How it was run: as §2

MOLM-13 = assay: as above
How it was run: as §2

MV4-11 = assay: as above
How it was run: as §2

Mono-Mac-6 = assay: as above
How it was run: as §2

NOMO-1 [11] = assay: as above
How it was run: as §2

SHI-1 = assay: as above
How it was run: as §2

THP-1 = assay: as above
How it was run: as §2

OC[C@H]1NC[C@H](O)[C@@H](O)[C@@H]1O [Duvoglustat]
Details	IC50 (cell viability) [µM]
HL-60 [1]	> 10
KCL-22 [2]	> 10
KG-1 [3]	> 10
ML-2 [4]	> 10
NOMO-1 [5]	> 10

cell viability [%], HL-60 [6]
Details	0.001 µM	0.01 µM	0.1 µM	1 µM	10 µM
co-treatment: AZD3965 100 nM	96.9	99.7	96.3	96.5	94
co-treatment: DMSO vehicle	99.3	95.3	102	102	101.5
co-treatment: GSK2194069 100 nM	97.4	92.82	107	105	95.8
co-treatment: pictilisib 100 nM	97.9	108	108	109	106

cell viability [%]
Details	1 nM	10 nM	100 nM	1000 nM	10000 nM
BV-173	96.5	85.3	104	75.6	96.5
HEL	94.5	122	99.8	94.4	103
HL-60 [7]	90.1	180	113	81	125
K-562	90.3	94.7	100	88.2	105
KCL-22 [8]	90.5	120	107	87	104
KG-1 [9]	96.4	111	108	87.3	101
KU-812	84.9	99.8	92.5	94.5	103
LAMA-84	84.3	98	106	88.3	106
ML-2 [10]	95.4	121	117	84.9	106
MOLM-13	79.3	127	104	83.3	102
MV4-11	93.3	108	92.8	92.6	113
Mono-Mac-6	102	107	105	78.9	104
NOMO-1 [11]	95.8	101	99.5	83.4	105
SHI-1	103	121	109	88	108
THP-1	96.6	92.3	109	84.6	101

Cc1[nH]nc(C(F)(F)F)c1Cc1sc2c(c1C(=O)N1C[C@](C)(O)CO1)c(=O)n(C)c(=O)n2C(C)C [AZD3965]
Details	IC50 (cell viability) [µM]
HL-60 [1]	> 10
KCL-22 [2]	> 10
KG-1 [3]	> 10
ML-2 [4]	> 10
NOMO-1 [5]	> 10

cell viability [%], HL-60 [6]
Details	0.001 µM	0.01 µM	0.1 µM	1 µM	10 µM
co-treatment: AZD3965 100 nM	92.7	98.1	96	92.2	102
co-treatment: DMSO vehicle	102	95.8	97.9	94.6	99.6
co-treatment: GSK2194069 100 nM	98	95.7	108	97.5	105
co-treatment: pictilisib 100 nM	89.3	97.7	109	97.9	112

cell viability [%]
Details	1 nM	10 nM	100 nM	1000 nM	10000 nM
BV-173	91.4	103	4.97	0.26	0.551
HEL	84.2	108	116	111	109
HL-60 [7]	79.9	95.6	111	113	115
K-562	101	42	33.8	20	21.9
KCL-22 [8]	89.7	112	125	102	108
KG-1 [9]	114	118	124	132	127
KU-812	91.7	120	112	89.8	98.9
LAMA-84	89.5	120	113	95.1	102
ML-2 [10]	106	116	114	108	101
MOLM-13	113	120	120	105	93.5
MV4-11	89	106	138	94.7	81.6
Mono-Mac-6	108	105	111	84.9	98.3
NOMO-1 [11]	95.3	112	114	101	105
SHI-1	103	101	109	101	96.7
THP-1	107	104	113	99.5	102
